Experimental data taken from article PMC8126183, “Three LysM effectors of Zymoseptoria tritici collectively disarm chitin‐triggered plant immunity” (Molecular Plant Pathology, 2021).

What was measured:
Mg1LysM = target: T1, Mg1LysM (Zymoseptoria tritici, UniProt F9XHX3); assay: ligand-induced polymerization, centrifugation pellet with methylene blue; assay type: binding; conditions: 200 µM protein stock mixed 1:1 with 2 mM chitohexaose; room temperature overnight; positive control
T1 construct: E. coli-produced; single LysM; borders and tag not described; ligand-independent homodimer

Mgx1LysM = target: T2, Mgx1LysM (Zymoseptoria tritici, UniProt P9WEM2); assay: as above; assay type: binding; conditions: 200 µM protein stock mixed 1:1 with 2 mM chitohexaose; room temperature overnight
T2 construct: mature protein, signal peptide removed; E. coli Origami, pETSUMO; 6xHis-SUMO tag cleaved with ULP1; single LysM
T2 sequence (P9WEM2 19-103): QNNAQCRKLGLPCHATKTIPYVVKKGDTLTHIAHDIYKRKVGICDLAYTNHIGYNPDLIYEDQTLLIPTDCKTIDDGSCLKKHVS

T1 sequence (F9XHX3 19-97): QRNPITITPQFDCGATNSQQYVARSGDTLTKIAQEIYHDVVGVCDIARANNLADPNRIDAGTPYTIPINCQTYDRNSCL

Structure (SMILES): CC(=O)N[C@H]1[C@H](O[C@H]2[C@H](O)[C@@H](NC(C)=O)[C@H](O[C@H]3[C@H](O)[C@@H](NC(C)=O)C(O)O[C@@H]3CO)O[C@@H]2CO)O[C@H](CO)[C@@H](O[C@@H]2O[C@H](CO)[C@@H](O[C@@H]3O[C@H](CO)[C@@H](O[C@@H]4O[C@H](CO)[C@@H](O)[C@H](O)[C@H]4NC(C)=O)[C@H](O)[C@H]3NC(C)=O)[C@H](O)[C@H]2NC(C)=O)[C@@H]1O (some centres unmarked) [chitohexaose]
- ligand-induced polymerization, centrifugation pellet with methylene blue (Mg1LysM): protein pellets (red arrowheads) as a consequence of polymerization for Mgx1LysM, Mg1LysM, and RiSLM
- ligand-induced polymerization, centrifugation pellet with methylene blue (Mgx1LysM): a clear Mgx1LysM pellet emerged upon incubation with chitin, and not in the absence
